Experimental data as given in article PMC4979471 (Cell Death Discovery, 2015).
Where two headings read alike, the source gives them in different places.

How the values were obtained:
Test in all cases: Kinase selectivity, P33-radiolabeled assay
Format in all cases: biochemical
Conditions in all cases: 10 μM ATP
DLK/MAP3K12 = molecular target: T1, DLK/MAP3K12 (Homo sapiens, UniProt Q12852)
T1 construct: purchased Reaction Biology Corp
T1 sequence (Q12852 1-859): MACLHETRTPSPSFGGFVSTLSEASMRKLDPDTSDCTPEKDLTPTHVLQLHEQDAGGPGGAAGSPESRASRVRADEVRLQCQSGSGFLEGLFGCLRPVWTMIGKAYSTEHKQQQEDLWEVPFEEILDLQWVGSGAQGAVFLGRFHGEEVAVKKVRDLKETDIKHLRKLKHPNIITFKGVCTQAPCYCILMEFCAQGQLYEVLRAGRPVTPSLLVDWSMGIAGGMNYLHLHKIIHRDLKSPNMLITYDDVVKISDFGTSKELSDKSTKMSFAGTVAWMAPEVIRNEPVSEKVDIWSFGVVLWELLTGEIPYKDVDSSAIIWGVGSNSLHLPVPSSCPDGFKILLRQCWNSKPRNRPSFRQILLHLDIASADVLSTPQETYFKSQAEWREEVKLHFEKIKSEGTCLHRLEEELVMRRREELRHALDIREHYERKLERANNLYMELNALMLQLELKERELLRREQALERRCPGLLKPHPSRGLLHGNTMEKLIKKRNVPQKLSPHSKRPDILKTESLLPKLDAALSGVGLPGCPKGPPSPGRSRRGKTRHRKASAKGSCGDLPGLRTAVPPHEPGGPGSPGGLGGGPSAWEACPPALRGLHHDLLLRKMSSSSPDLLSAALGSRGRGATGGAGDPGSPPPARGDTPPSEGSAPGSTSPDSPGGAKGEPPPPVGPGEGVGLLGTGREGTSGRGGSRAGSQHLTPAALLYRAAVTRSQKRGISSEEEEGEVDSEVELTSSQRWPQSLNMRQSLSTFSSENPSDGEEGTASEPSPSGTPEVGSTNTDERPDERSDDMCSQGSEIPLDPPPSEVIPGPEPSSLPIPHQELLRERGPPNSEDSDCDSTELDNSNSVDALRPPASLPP
Summary of the method: (§1)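 Reactions contained 10 μM ATP and 10 μM test compound, each run in duplicate. Kinase activity is expressed as a percentage of DMSO-treated controls.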

ERBB4/HER4 = molecular target: T2, ERBB4/HER4 (Homo sapiens, UniProt Q15303)
T2 construct: purchased Reaction Biology Corp
Summary of the method: as §1

PKCb1 = molecular target: T3, PKCb1 (Homo sapiens, UniProt P05771)
T3 construct: purchased Reaction Biology Corp
Summary of the method: as §1

PKCtheta = molecular target: T4, PKCtheta (Homo sapiens, UniProt Q04759)
T4 construct: purchased Reaction Biology Corp
Summary of the method: as §1

MST2/STK3 = molecular target: T5, MST2/STK3 (Homo sapiens, UniProt Q13188)
T5 construct: purchased Reaction Biology Corp
T5 sequence (Q13188 1-491): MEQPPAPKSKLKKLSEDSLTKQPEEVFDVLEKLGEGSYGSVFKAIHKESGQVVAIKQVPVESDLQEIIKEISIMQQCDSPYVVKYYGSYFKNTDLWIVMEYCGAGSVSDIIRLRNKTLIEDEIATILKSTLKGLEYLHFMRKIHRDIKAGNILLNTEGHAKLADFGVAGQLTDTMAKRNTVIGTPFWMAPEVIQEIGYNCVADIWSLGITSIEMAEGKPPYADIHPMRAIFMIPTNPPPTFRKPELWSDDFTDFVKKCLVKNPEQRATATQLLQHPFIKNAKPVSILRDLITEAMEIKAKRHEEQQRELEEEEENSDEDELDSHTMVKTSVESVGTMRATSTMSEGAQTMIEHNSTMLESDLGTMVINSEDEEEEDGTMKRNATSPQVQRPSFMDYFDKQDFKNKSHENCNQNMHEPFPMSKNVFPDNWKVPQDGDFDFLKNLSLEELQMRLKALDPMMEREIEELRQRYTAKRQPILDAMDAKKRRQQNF
Summary of the method: as §1

NEK6 = molecular target: T6, NEK6 (Homo sapiens, UniProt Q9HC98)
T6 construct: purchased Reaction Biology Corp
Summary of the method: as §1

LCK = molecular target: T7, LCK (Homo sapiens, UniProt P06239)
T7 construct: purchased Reaction Biology Corp
Summary of the method: as §1

DDR1 = molecular target: T8, DDR1 (Homo sapiens, UniProt Q08345)
T8 construct: purchased Reaction Biology Corp
Summary of the method: as §1

TYK1/LTK = molecular target: T9, TYK1/LTK (Homo sapiens, UniProt P29376)
T9 construct: purchased Reaction Biology Corp
Summary of the method: as §1

CLK3 = molecular target: T10, CLK3 (Homo sapiens, UniProt P49761)
T10 construct: purchased Reaction Biology Corp
Summary of the method: as §1

TSSK3/STK22C = molecular target: T11, TSSK3/STK22C (Homo sapiens, UniProt Q96PN8)
T11 construct: purchased Reaction Biology Corp
T11 sequence (Q96PN8 1-268): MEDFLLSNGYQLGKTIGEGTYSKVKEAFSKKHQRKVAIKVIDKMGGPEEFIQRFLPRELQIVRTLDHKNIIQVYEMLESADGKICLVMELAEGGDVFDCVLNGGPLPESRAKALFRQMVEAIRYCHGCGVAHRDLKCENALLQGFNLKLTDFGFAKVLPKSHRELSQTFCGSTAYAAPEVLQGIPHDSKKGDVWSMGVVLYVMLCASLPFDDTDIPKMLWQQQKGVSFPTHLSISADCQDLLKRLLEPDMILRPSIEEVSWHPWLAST
Summary of the method: as §1

[1] = read-out: % Enzyme Activity (relative to DMSO controls) AVG
[2] = read-out: % Enzyme Activity (relative to DMSO controls) Data 1
[3] = read-out: % Enzyme Activity (relative to DMSO controls) Data 2

T10 sequence (P49761 whole entry): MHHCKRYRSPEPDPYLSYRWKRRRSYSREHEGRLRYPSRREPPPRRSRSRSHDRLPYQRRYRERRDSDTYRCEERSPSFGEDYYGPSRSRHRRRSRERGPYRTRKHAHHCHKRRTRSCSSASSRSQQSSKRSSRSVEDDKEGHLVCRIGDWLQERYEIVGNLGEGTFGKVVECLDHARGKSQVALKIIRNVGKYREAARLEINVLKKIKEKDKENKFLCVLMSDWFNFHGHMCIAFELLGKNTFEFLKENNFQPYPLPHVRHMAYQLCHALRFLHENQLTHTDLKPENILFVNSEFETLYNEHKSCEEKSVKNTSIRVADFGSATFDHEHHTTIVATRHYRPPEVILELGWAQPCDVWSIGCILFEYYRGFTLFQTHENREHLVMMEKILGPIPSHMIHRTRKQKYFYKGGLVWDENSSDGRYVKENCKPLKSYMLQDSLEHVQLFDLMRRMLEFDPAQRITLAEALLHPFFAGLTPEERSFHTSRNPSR
T7 sequence (P06239 whole entry): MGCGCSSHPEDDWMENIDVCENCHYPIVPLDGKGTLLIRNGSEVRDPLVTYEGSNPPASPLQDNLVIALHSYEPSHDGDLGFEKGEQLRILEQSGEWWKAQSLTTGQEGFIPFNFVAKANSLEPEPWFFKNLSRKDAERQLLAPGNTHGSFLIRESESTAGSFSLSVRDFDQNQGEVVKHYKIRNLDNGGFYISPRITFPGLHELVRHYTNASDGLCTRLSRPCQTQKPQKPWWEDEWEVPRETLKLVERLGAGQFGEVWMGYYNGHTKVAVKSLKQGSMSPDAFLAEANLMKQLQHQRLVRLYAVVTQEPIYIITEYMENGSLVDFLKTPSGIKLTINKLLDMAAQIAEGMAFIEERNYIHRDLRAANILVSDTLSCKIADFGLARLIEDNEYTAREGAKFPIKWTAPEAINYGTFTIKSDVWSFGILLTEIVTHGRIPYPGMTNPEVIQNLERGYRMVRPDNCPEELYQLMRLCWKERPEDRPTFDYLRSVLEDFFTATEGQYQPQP
T4 sequence (Q04759 whole entry): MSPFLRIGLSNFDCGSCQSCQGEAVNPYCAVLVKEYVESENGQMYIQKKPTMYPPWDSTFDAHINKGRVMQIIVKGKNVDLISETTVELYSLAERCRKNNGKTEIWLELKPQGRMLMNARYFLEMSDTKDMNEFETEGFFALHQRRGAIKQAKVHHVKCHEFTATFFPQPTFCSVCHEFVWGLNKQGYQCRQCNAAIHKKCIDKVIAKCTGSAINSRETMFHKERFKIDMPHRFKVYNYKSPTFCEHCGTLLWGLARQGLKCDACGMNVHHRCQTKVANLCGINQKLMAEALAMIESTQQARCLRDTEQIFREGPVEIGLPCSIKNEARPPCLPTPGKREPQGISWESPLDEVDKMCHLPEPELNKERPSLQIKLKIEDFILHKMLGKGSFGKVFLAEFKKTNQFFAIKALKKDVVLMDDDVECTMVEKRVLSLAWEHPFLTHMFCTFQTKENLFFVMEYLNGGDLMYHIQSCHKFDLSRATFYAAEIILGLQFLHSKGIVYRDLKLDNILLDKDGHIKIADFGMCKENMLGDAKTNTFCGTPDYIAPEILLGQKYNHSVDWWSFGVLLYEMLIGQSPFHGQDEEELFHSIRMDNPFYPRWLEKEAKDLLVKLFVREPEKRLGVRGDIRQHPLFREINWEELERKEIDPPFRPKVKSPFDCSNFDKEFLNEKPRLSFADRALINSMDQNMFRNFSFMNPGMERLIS
T3 sequence (P05771 whole entry): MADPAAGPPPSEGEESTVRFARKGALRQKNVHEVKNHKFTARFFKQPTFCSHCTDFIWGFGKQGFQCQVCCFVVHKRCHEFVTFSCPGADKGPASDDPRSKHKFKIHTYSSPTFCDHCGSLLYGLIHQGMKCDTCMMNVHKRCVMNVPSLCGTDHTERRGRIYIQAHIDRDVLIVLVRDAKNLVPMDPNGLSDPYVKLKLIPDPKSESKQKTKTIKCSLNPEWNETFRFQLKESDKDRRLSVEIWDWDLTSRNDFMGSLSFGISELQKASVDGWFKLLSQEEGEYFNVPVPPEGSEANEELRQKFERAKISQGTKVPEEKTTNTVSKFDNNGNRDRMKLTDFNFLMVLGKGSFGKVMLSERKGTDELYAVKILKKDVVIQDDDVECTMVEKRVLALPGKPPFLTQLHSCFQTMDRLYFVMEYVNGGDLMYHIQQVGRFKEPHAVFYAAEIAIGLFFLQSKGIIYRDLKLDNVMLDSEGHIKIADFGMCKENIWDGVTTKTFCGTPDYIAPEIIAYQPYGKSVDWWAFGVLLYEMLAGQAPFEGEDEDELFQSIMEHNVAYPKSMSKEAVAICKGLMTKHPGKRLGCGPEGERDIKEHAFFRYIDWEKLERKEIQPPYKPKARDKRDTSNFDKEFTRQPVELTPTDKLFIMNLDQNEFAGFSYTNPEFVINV
T6 sequence (Q9HC98 whole entry): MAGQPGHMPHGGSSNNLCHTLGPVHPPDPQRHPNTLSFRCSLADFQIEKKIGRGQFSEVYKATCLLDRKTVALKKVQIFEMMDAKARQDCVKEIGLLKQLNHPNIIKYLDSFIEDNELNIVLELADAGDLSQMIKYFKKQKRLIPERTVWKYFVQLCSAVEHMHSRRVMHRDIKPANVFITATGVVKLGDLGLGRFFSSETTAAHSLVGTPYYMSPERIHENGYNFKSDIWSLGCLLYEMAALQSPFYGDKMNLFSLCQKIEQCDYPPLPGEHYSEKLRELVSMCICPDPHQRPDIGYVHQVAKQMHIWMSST
T9 sequence (P29376 17-864): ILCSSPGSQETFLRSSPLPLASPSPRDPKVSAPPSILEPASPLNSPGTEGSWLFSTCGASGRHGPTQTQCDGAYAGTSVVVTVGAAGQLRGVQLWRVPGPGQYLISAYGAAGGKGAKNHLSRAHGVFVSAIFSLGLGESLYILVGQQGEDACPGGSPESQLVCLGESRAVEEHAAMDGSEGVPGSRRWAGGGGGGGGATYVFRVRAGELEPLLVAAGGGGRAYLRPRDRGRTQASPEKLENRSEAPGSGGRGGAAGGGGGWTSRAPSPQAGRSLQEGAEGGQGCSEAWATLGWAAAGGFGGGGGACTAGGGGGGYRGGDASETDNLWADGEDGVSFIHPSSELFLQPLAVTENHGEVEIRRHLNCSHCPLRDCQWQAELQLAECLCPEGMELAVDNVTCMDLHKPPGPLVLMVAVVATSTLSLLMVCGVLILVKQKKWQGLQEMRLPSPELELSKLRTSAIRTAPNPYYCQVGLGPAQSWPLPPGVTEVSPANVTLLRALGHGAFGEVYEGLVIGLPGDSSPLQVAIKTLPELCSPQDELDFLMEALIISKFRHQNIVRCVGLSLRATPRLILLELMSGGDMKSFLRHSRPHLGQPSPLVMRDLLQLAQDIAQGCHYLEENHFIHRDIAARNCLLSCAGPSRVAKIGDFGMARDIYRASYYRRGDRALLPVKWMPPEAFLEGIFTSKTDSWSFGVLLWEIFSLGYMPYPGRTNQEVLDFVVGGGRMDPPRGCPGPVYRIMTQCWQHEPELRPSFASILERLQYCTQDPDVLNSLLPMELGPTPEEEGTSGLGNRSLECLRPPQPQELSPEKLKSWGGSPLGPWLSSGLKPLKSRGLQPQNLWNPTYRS
T8 sequence (Q08345 19-913): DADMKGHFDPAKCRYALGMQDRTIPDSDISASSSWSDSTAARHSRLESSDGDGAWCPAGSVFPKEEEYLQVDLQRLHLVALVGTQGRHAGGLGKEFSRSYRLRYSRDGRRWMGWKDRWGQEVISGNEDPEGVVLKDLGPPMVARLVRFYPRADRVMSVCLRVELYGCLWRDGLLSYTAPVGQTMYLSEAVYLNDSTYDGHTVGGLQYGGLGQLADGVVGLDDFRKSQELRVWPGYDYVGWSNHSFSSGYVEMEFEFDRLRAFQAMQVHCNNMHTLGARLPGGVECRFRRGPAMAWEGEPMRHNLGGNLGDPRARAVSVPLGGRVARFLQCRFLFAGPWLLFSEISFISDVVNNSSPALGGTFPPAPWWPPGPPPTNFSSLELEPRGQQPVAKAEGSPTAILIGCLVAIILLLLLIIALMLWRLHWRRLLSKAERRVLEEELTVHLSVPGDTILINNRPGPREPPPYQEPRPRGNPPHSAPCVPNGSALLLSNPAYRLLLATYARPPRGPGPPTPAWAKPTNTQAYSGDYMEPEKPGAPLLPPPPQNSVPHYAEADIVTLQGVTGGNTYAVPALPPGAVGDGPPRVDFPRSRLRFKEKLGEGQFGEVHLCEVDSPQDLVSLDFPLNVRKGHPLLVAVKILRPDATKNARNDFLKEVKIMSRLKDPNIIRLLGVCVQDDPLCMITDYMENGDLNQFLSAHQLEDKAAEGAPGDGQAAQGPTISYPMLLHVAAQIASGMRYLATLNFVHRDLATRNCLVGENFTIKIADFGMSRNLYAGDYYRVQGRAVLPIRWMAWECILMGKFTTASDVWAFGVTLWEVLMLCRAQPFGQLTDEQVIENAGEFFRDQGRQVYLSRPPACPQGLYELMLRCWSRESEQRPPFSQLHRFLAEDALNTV

## CC(C)(C)C(=O)N1N=CC[C@H]1c1ccccc1 [GSK′963]
DLK/MAP3K12; [1]
  remaining activity at 10 µM: 104%
DLK/MAP3K12; [2]
  remaining activity at 10 µM: 106%
DLK/MAP3K12; [3]
  remaining activity at 10 µM: 102%
ERBB4/HER4; [1]
  remaining activity at 10 µM: 102%
ERBB4/HER4; [2]
  remaining activity at 10 µM: 101%
ERBB4/HER4; [3]
  remaining activity at 10 µM: 104%
PKCb1; [1]
  remaining activity at 10 µM: 97.8%
PKCb1; [2]
  remaining activity at 10 µM: 96.7%
PKCb1; [3]
  remaining activity at 10 µM: 98.9%
PKCtheta; [1]
  remaining activity at 10 µM: 96.8%
PKCtheta; [2]
  remaining activity at 10 µM: 97%
PKCtheta; [3]
  remaining activity at 10 µM: 96.7%
MST2/STK3; [1]
  remaining activity at 10 µM: 107%
MST2/STK3; [2]
  remaining activity at 10 µM: 105%
MST2/STK3; [3]
  remaining activity at 10 µM: 109%
NEK6; [1]
  remaining activity at 10 µM: 97.9%
NEK6; [2]
  remaining activity at 10 µM: 100%
NEK6; [3]
  remaining activity at 10 µM: 95.5%
LCK; [1]
  remaining activity at 10 µM: 96.4%
LCK; [2]
  remaining activity at 10 µM: 96.1%
LCK; [3]
  remaining activity at 10 µM: 96.7%
DDR1; [1]
  remaining activity at 10 µM: 96%
DDR1; [2]
  remaining activity at 10 µM: 94%
DDR1; [3]
  remaining activity at 10 µM: 97.9%
TYK1/LTK; [1]
  remaining activity at 10 µM: 104%
TYK1/LTK; [2]
  remaining activity at 10 µM: 104%
TYK1/LTK; [3]
  remaining activity at 10 µM: 105%
CLK3; [1]
  remaining activity at 10 µM: 107%
CLK3; [2]
  remaining activity at 10 µM: 109%
CLK3; [3]
  remaining activity at 10 µM: 105%
TSSK3/STK22C; [1]
  remaining activity at 10 µM: 131%
TSSK3/STK22C; [2]
  remaining activity at 10 µM: 129%
TSSK3/STK22C; [3]
  remaining activity at 10 µM: 133%
